Measured values taken from patent US20070128685A1, “Methods and compositions for cell culture” (priority 2005, published 2007).

How the values were obtained:
[1] = tested on: Normal human adult chondrocytes and normal rodent chondrocytes; test: Culture of chondrocytes in supplemented DMEM serum free media; assay type: cell-based; conditions: DMEM SFM, Collagenase 5 μg/ml; after 4, 6, and 9 passages
Description: Currently, there is not any SFM commercially available for chondrocytes. Using the serum-containing media available, the life-span of the chondrocytes in culture is very limited (up to 3 to 4 passages, between 10-15 doublings times). Thus, the present example illustrates the use of collagenase and forskolin to allow the used of SFM with chondrocytes.
Normal human adult chondrocytes and normal rodent chondrocytes were cultured in a SFM. Collagenase (5 μg/ml) was added into the DMEM serum free media (SFM) and tested on said primary and secondary chondrocytes cultures.

[2] = tested on: Human dermal adult and newborn skin fibroblasts; test: Proliferation of human dermal fibroblasts in media supplemented with collagenase; assay type: cell-based; conditions: primary and secondary culture
Description: Human dermal adult and newborn skin fibroblasts were cultured in a SFM and serum-containing media (DMEM 5% FBS). Collagenase ([…]) was added to the DMEM serum free media (SFM) and tested on primary and secondary culture of human adult and newborn fibroblasts. In both cases (SFM and DMEM 5%) Collagenase increase cell proliferation up to 2-2.5 fold over the controls.

Collagenase
growth of chondrocytes [1]: robust growth | increase of cell proliferation over the controls ([2]; DMEM serum free media (SFM), Collagenase 1 μg/nl): 2-2.5 fold | increase of cell proliferation over the controls ([2]; serum-containing media (DMEM 5% FBS)): 2-2.5 fold
